Experimental data from patent publication US4545991A, “Difficidin and derivative antibacterials” (Merck & Co., Inc., priority 1983, dated 1985).
≈ marks a conversion by molar mass, not a printed value.

How the values were obtained:
S. aureus Gm^R Meth^R = experiment: MIC, in vitro agar dilution assay, aerobic bacteria (Table II); assay type: cell-based; conditions: S. aureus Gm^R Meth^R; 10^6 CFU per spot
E. coli = experiment: as above; assay type: cell-based; conditions: 10^6 CFU per spot
Text: (§1) Further evaluations of the antibacterial spectrum of difficidin and oxydifficidin were undertaken, especially as compared to the antibacterial spectrum of the valuable antibiotic cefoxitin, which is well known for its wide spectrum of antibacterial activity. An in vitro agar dilution assay was used, inoculum 10^6 CFU per spot. Table II below illustrates the results obtained for various aerobic bacteria, and Table III illustrates the results obtained for various anaerobic bacteria.

S. aureus = experiment: as above; assay type: cell-based; conditions: 10^6 CFU per spot
Text: as §1

Strep. faecalis = experiment: as above; assay type: cell-based; conditions: 10^6 CFU per spot
Text: as §1

E. coli TEM 2^+ = experiment: as above; assay type: cell-based; conditions: E. coli TEM 2^+; 10^6 CFU per spot
E. coli TEM 2^+ DC 2 = experiment: as above; assay type: cell-based; conditions: E. coli TEM 2^+ DC 2; 10^6 CFU per spot
E. coli DC 2 = experiment: as above; assay type: cell-based; conditions: E. coli DC 2; 10^6 CFU per spot
Sal. typhimurium = experiment: as above; assay type: cell-based; conditions: 10^6 CFU per spot
Ent. cloacae P99^+ = experiment: as above; assay type: cell-based; conditions: Ent. cloacae P99^+; 10^6 CFU per spot
Ent. cloacae P99^- = experiment: as above; assay type: cell-based; conditions: Ent. cloacae P99^-; 10^6 CFU per spot
Ent. aerogenes = experiment: as above; assay type: cell-based; conditions: Ent. aerogenes; 10^6 CFU per spot
K. pneumoniae Kl^+ = experiment: as above; assay type: cell-based; conditions: 10^6 CFU per spot
Prot. vulgaris = experiment: as above; assay type: cell-based; conditions: 10^6 CFU per spot
Prot. morganii Sm^R = experiment: as above; assay type: cell-based; conditions: Prot. morganii Sm^R; 10^6 CFU per spot
Prot. mirabilis Gm^R = experiment: as above; assay type: cell-based; conditions: 10^6 CFU per spot
Ps. aeruginosa RPL 11^+ = experiment: as above; assay type: cell-based; conditions: Ps. aeruginosa RPL 11^+; 10^6 CFU per spot
Ps. aeruginosa = experiment: as above; assay type: cell-based; conditions: Ps. aeruginosa, first unmarked strain; 10^6 CFU per spot
Actinomyces naeslundii = experiment: MIC, in vitro agar dilution assay, anaerobic bacteria (Table III); assay type: cell-based; conditions: 10^6 CFU per spot
Eubacterium limosum = experiment: as above; assay type: cell-based; conditions: 10^6 CFU per spot
Propionibacterium acnes = experiment: as above; assay type: cell-based; conditions: 10^6 CFU per spot
[1] = system: Peptostreptococcus anaerobius; experiment: as above; assay type: cell-based; conditions: 10^6 CFU per spot
C. ramosum = experiment: as above; assay type: cell-based; conditions: 10^6 CFU per spot
C. difficile Fox^r = experiment: as above; assay type: cell-based; conditions: C. difficile Fox^r; 10^6 CFU per spot
B. fragilis Pen^r = experiment: as above; assay type: cell-based; conditions: 10^6 CFU per spot
[2] = system: B. fragilis Clind^r Fox^r Tet^r; experiment: as above; assay type: cell-based; conditions: 10^6 CFU per spot
[3] = system: B. fragilis NCCLS control strain; experiment: as above; assay type: cell-based; conditions: 10^6 CFU per spot
[4] = system: B. distasonis Pen^r Fox^r Clind^r; experiment: as above; assay type: cell-based; conditions: 10^6 CFU per spot
[5] = system: B. distasonis Pen^r Fox^r; experiment: as above; assay type: cell-based; conditions: 10^6 CFU per spot
[6] = system: B. thetaiotaomicron Clind^r; experiment: as above; assay type: cell-based; conditions: 10^6 CFU per spot
[7] = system: B. thetaiotaomicron Clind^r, NCCLS control strain; experiment: as above; assay type: cell-based; conditions: 10^6 CFU per spot
[8] = system: Fusobacterium mortiferum Fox^r; experiment: as above; assay type: cell-based; conditions: 10^6 CFU per spot
Veillonella alcalescens = experiment: as above; assay type: cell-based; conditions: 10^6 CFU per spot
[9] = system: Klebsiella pneumoniae MB 4005; experiment: standard mouse protection test, experimental systemic infection; assay type: in vivo, CD1 female mice; conditions: × 2 i.p. doses (immediately after infection and 6 hours later), 7 days
Experimental: The antibacterial efficacy of difficidin and its derivatives was further determined in standard mouse protection tests. An experimental systemic infection was produced in CD1 female mice (Charles River Breeding Laboratories, Wilmington, MA) by the intraperitoneal injection of a suitably diluted broth culture of Klebsiella pneumoniae MB 4005. The test antibacterial compounds and the control drug (streptomycin) were administered parenterally (intraperitoneally) immediately after infection and again 6 hours later. At least 4 fourfold dilutions of each agent were tested. There were 5 mice at each dose level. […] Under the conditions of the test, all infected untreated mice died within 48 hours.
Mice were protected by the administration of the test antibacterial compounds or streptomycin at the median effective doses shown in Table IV below.

[10] = system: Klebsiella pneumoniae MB 4005; experiment: MIC listed with mouse protection test (Table IV); assay type: cell-based
anaerobic bacteria = experiment: antibacterial activity against anaerobic bacteria, summary; assay type: cell-based; conditions: wide spectrum of anaerobic bacteria

Compound | MIC (S. aureus Gm^R Meth^R) [µg/mL] | MIC (E. coli) [µg/mL] | MIC (S. aureus; first unmarked strain) [µg/mL] | MIC (S. aureus; second unmarked strain) [µg/mL] | MIC (Strep. faecalis) [µg/mL] | MIC (E. coli TEM 2^+) [µg/mL] | MIC (E. coli TEM 2^+ DC 2) [µg/mL] | MIC (E. coli DC 2) [µg/mL] | MIC (Sal. typhimurium) [µg/mL] | MIC (Ent. cloacae P99^+) [µg/mL] | MIC (Ent. cloacae P99^-) [µg/mL] | MIC (Ent. aerogenes) [µg/mL] | MIC (K. pneumoniae Kl^+) [µg/mL] | MIC (Prot. vulgaris) [µg/mL] | MIC (Prot. morganii Sm^R) [µg/mL] | MIC (Prot. mirabilis Gm^R) [µg/mL] | MIC (Ps. aeruginosa RPL 11^+) [µg/mL] | MIC (Ps. aeruginosa) [µg/mL] | MIC (Actinomyces naeslundii) [µg/mL] | MIC (Eubacterium limosum) [µg/mL] | also measured
C=CC=C(C)CCC1CC=CC=C(C)C(OP(=O)(O)O)CCCC=CC=CC=CCC(C)C(=C)CC(=O)O1 (stereo not shown) [Difficidin, difficidin] | 8.0 (≈ 14.7 µM) | 8.0 (≈ 14.7 µM) | 16.0 (≈ 29.4 µM) | 8.0 (≈ 14.7 µM) | > 128.0 | 8.0 (≈ 14.7 µM) | 8.0 (≈ 14.7 µM) | 8.0 (≈ 14.7 µM) | 8.0 (≈ 14.7 µM) | 16.0 (≈ 29.4 µM) | 8.0 (≈ 14.7 µM) | 8.0 (≈ 14.7 µM) | 8.0 (≈ 14.7 µM) | 0.5 (≈ 0.918 µM) | 2.0 (≈ 3.67 µM) | 8.0 (≈ 14.7 µM) | 8.0 (≈ 14.7 µM) | 8.0 (≈ 14.7 µM) | > 128 | > 128 | MIC (Propionibacterium acnes): 1 µg/mL (≈ 1.84 µM); MIC [1]: 0.06 µg/mL (≈ 0.11 µM); MIC (C. ramosum): 2 µg/mL (≈ 3.67 µM); MIC (C. difficile Fox^r): 0.06 µg/mL (≈ 0.11 µM); MIC (B. fragilis Pen^r): 0.125 µg/mL (≈ 0.229 µM); MIC [2]: 0.25 µg/mL (≈ 0.459 µM); MIC [3]: 0.06 µg/mL (≈ 0.11 µM); MIC [4]: 0.06 µg/mL (≈ 0.11 µM); MIC [5]: > 128 µg/mL; MIC [6]: 0.25 µg/mL (≈ 0.459 µM); MIC [7]: 0.06 µg/mL (≈ 0.11 µM); MIC [8]: 0.03 µg/mL (≈ 0.0551 µM); MIC (Veillonella alcalescens): 0.25 µg/mL (≈ 0.459 µM); ED50 ([9]; Test No. 3): 1.56 mg/kg; MIC [10]: 8 µg/mL (≈ 14.7 µM); activity against anaerobic bacteria (anaerobic bacteria): active against a wide spectrum of anaerobic bacteria
C=CC=C(C)CCC1CC=CC=C(C)C(OP(=O)(O)O)CCCC=CC=CC=CC(O)C(C)C(=C)CC(=O)O1 (stereo not shown) [Oxydifficidin, oxydifficidin] | 32.0 (≈ 57.1 µM) | 4.0 (≈ 7.13 µM) | > 128.0 | 32.0 (≈ 57.1 µM) | > 128.0 | 16.0 (≈ 28.5 µM) | 8.0 (≈ 14.3 µM) | 4.0 (≈ 7.13 µM) | 32.0 (≈ 57.1 µM) | 32.0 (≈ 57.1 µM) | 64.0 (≈ 114 µM) | 32.0 (≈ 57.1 µM) | 8.0 (≈ 14.3 µM) | 8.0 (≈ 14.3 µM) | 2.0 (≈ 3.57 µM) | 32.0 (≈ 57.1 µM) | 16.0 (≈ 28.5 µM) | 32.0 (≈ 57.1 µM) | 64 (≈ 114 µM) | > 128 | MIC (Propionibacterium acnes): 8 µg/mL (≈ 14.3 µM); MIC [1]: 0.06 µg/mL (≈ 0.107 µM); MIC (C. ramosum): 2 µg/mL (≈ 3.57 µM); MIC (C. difficile Fox^r): 0.06 µg/mL (≈ 0.107 µM); MIC (B. fragilis Pen^r): 0.125 µg/mL (≈ 0.223 µM); MIC [2]: 0.25 µg/mL (≈ 0.446 µM); MIC [3]: 0.25 µg/mL (≈ 0.446 µM); MIC [4]: 0.06 µg/mL (≈ 0.107 µM); MIC [5]: > 128 µg/mL; MIC [6]: 0.25 µg/mL (≈ 0.446 µM); MIC [7]: 0.25 µg/mL (≈ 0.446 µM); MIC [8]: 0.125 µg/mL (≈ 0.223 µM); MIC (Veillonella alcalescens): 0.06 µg/mL (≈ 0.107 µM); ED50 ([9]; Test No. 1): 12.25 mg/kg; ED50 ([9]; Test No. 2): 14.85 mg/kg; MIC [10]: 8 µg/mL (≈ 14.3 µM); activity against anaerobic bacteria (anaerobic bacteria): active against a wide spectrum of anaerobic bacteria
